Assay results as given in publication doi:10.1101/2025.06.17.660082v1 (bioRxiv, 2025).
Blank lines part the entries; values can stand above or below the compound they belong to.

Key:
GIPR = molecular target: T1, GIPR (Homo sapiens, UniProt P48546); experiment: Schild analysis of FFA release in hMADS with GIPR antagonist; assay type: cell-based
T1 sequence (P48546 22-466): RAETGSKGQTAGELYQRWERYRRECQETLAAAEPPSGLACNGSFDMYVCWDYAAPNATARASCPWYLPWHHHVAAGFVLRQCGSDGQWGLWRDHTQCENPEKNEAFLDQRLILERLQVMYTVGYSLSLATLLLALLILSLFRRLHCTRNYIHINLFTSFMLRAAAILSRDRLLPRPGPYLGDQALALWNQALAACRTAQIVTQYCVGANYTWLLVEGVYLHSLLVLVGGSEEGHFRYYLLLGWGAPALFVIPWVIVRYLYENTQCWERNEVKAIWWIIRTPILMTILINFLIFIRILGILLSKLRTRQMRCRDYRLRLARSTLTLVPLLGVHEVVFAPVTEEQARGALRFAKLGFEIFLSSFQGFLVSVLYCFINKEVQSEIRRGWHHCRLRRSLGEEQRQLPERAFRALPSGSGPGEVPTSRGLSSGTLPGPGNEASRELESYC

hMADS cells = experiment: mRNA expression by RT-qPCR in hMADS; assay type: cell-based, human; settings: in the presence of 10 nM insulin, 24 h
[1] = healthy individuals, degradation by dipeptidyl peptidase 4; cited from earlier work
white hMADS cells = experiment: Lipolysis assay; assay type: cell-based, human; settings: for FFA release after pretreatment with adenylyl cyclase inhibitor SQ22536: white hMADS
[2] = molecular target: human insulin receptor/ CD220 (28-944) protein (Homo sapiens, UniProt P06213); experiment: Surface plasmon resonance, immobilised biotinylated peptide, INSR injected; assay type: binding; settings: biotinylated peptide on Sensor Chip SA
Chain of human insulin receptor/ CD220 (28-944) protein (P06213 28-944 isoform P06213-2): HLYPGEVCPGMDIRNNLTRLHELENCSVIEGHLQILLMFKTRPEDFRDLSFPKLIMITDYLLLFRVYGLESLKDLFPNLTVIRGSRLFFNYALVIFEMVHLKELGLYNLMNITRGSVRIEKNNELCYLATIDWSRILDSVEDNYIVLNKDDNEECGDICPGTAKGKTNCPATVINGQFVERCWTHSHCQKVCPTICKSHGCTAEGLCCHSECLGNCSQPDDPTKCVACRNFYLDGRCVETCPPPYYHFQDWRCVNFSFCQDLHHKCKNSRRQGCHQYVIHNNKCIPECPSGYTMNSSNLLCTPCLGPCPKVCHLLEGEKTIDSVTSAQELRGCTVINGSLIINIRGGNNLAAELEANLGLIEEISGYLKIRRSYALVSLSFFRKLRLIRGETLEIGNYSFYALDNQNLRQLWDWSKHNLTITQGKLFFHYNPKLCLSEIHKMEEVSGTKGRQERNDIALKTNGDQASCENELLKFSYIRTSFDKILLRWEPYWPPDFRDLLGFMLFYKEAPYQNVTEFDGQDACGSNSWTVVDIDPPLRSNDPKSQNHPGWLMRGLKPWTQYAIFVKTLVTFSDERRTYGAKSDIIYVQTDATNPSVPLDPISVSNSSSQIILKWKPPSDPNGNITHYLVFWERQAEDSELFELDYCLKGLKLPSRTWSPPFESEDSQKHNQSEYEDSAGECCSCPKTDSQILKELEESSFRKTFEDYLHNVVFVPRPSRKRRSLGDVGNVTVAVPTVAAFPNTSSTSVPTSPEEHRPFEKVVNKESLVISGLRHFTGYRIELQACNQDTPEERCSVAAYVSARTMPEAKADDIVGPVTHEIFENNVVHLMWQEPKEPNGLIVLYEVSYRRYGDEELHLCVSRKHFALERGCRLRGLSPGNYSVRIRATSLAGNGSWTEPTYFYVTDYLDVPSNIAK

Compound: COc1cc([C@@H]2c3cc4c(cc3[C@H](O)[C@H]3COC(=O)[C@@H]23)OCO4)cc(OC)c1OC [PPP, Picropodophyllin]
expression of FASN (hMADS cells): significantly lower

Compound: CC(C)NCC(O)c1ccc(O)c(O)c1 (centres unmarked) [isoprenaline]
FFA release after pretreatment with adenylyl cyclase inhibitor SQ22536 (white hMADS cells): inhibited

Compound: brain natriuretic peptide [BNP]
FFA release after pretreatment with adenylyl cyclase inhibitor SQ22536 (white hMADS cells): remains unaffected

The next lines start with results.

effect on lipolysis induced by 1 µM isoprenaline (GIPR): remains unchanged
Compound: CCCCCCCCCCCCCCCC(=O)N[C@@H](CCC(=O)NCCCC[C@H](NC(=O)[C@H](Cc1ccc(O)cc1)NC(=O)[C@H](CC(=O)O)NC(=O)[C@H](CO)NC(=O)[C@@H](NC(=O)[C@H](Cc1ccccc1)NC(=O)[C@@H](NC(C)=O)[C@@H](C)O)[C@@H](C)CC)C(=O)N[C@H](C(=O)N[C@@H](C)C(=O)N[C@@H](CC(C)C)C(=O)N[C@@H](CC(=O)O)C(=O)N[C@@H](CCCCN)C(=O)N[C@H](C(=O)N[C@@H](CCCNC(=N)N)C(=O)N[C@@H](CCC(N)=O)C(=O)N[C@@H](CCC(N)=O)C(=O)N[C@@H](CCC(=O)O)C(=O)N[C@@H](Cc1ccccc1)C(=O)N[C@H](C(=O)N[C@@H](CC(N)=O)C(=O)N[C@@H](Cc1c[nH]c2ccccc12)C(=O)N[C@@H](CC(C)C)C(=O)N[C@@H](CC(C)C)C(=O)N[C@@H](C)C(=O)N[C@@H](CCC(N)=O)C(=O)N[C@@H](CCCCN)C(=O)NCC(N)=O)C(C)C)[C@@H](C)CC)[C@@H](C)CC)C(=O)O [GIPR antagonist]

EC50 (white hMADS cells; read-out: EC50, FFA release read-out, hMADS cells): 1.1 nM
Compound: CC[C@H](C)[C@H](NC(=O)[C@H](CO)NC(=O)[C@H](Cc1ccc(O)cc1)NC(=O)[C@H](CC(=O)O)NC(=O)[C@H](CO)NC(=O)[C@@H](NC(=O)[C@H](Cc1ccccc1)NC(=O)[C@@H](NC(=O)CNC(=O)[C@H](CCC(=O)O)NC(=O)[C@H](C)NC(=O)[C@@H](N)Cc1ccc(O)cc1)[C@@H](C)O)[C@@H](C)CC)C(=O)N[C@@H](C)C(=O)N[C@@H](CCSC)C(=O)N[C@@H](CC(=O)O)C(=O)N[C@@H](CCCCN)C(=O)N[C@H](C(=O)N[C@@H](Cc1c[nH]cn1)C(=O)N[C@@H](CCC(N)=O)C(=O)N[C@@H](CCC(N)=O)C(=O)N[C@@H](CC(=O)O)C(=O)N[C@@H](Cc1ccccc1)C(=O)N[C@H](C(=O)N[C@@H](CC(N)=O)C(=O)N[C@@H](Cc1c[nH]c2ccccc12)C(=O)N[C@@H](CC(C)C)C(=O)N[C@@H](CC(C)C)C(=O)N[C@@H](C)C(=O)N[C@@H](CCC(N)=O)C(=O)N[C@@H](CCCCN)C(=O)NCC(=O)N[C@@H](CCCCN)C(=O)N[C@@H](CCCCN)C(=O)N[C@@H](CC(N)=O)C(=O)N[C@@H](CC(=O)O)C(=O)N[C@@H](Cc1c[nH]c2ccccc12)C(=O)N[C@@H](CCCCN)C(=O)N[C@@H](Cc1c[nH]cn1)C(=O)N[C@@H](CC(N)=O)C(=O)N[C@H](C(=O)N[C@H](C(=O)N[C@@H](CCC(N)=O)C(=O)O)[C@@H](C)O)[C@@H](C)CC)C(C)C)[C@@H](C)CC [hGIP]
half-life [1]: approximately 7 minutes
FFA release in hMADS treated with GIPR siRNA vs siNC (white hMADS cells; GIPR knockdown approximately 40%): significantly reduced

binding of insulin receptor to immobilised peptide [2]: does not exhibit binding
Compound: Ac-PKMVPQFNTELKIFPEVNIK-NH2 [SP34]
